pIC50: −log10 of the molar value. Where “and” joins values, the source holds several entries; their conditions need not be identical. Equal values may be shown once. Marks after values point to notes of the source that are not given here. Where no end group is shown, it is not given here.
Legend:
α-glucosidase = α-glucosidase (Saccharomyces cerevisiae, UniProt P53341); conditions: cited from earlier work
Description: Marine proteins have a novel amino acid composition, which is one of the important sources for the production of bioactive peptides ([11], [12]). There have been a number of studies on natural hypoglycemic active peptides from marine sources such as Trachurus trachurus, Euphausia superba, Chlorella vulgaris and Crassostrea gigas ([11], [13-15]). […] The molecular weight of protein hydrolysates is a determinant of their biological activity, and peptide fractions with low molecular weights are highly biologically active ([33]).

serum insulin = assay: Effect of EHCA on serum insulin (INS); type: in vivo, Kunming mice; conditions: PC, metformin 150 mg/kg, mean ± SD, n = 10 mice
Experimental: Fifty healthy adult male Kunming mice were purchased from Zhuhai Bestest Biotechnology Co., Ltd. The experiments were approved by the Animal Ethics Committee of Guangdong Ocean University with the approval number of GDOU-LAE-2021-002, approved on 6 April 2021. Before the experiment, all animals were watered and fed freely for 7 days. […] The groups were mixed with soluble starch (250 mg/kg) and gavaged synchronously for 3 d. […] Effects of EHCA on mice at the end of the test, blood was taken from the eyeballs of mice, which were executed in the decapitated position, and the organs were collected for subsequent experiments. […] (5) […] Where WISI is the insulin sensitivity index; WFPG is fasting blood glucose, mmol/[…] is fasting insulin content (μU/mL); and WFBCI is the insulin secretion index.

blood glucose = assay: Effect of EHCA on blood glucose in normal mice (starch gavage); type: in vivo, Kunming mice
Experimental: Fifty healthy adult male Kunming mice were purchased from Zhuhai Bestest Biotechnology Co., Ltd. The experiments were approved by the Animal Ethics Committee of Guangdong Ocean University with the approval number of GDOU-LAE-2021-002, approved on 6 April 2021. Before the experiment, all animals were watered and fed freely for 7 days. […] The groups were mixed with soluble starch (250 mg/kg) and gavaged synchronously for 3 d. […] Where G0 is the pre-dose fasting blood glucose value, mmol/L; […] Area under the curve (AUC) was calculated applying the following formula (Equation 4): (4) […]/4.

SOD in liver = assay: Hepatic superoxide dismutase (SOD) activity; type: in vivo, Kunming mice; conditions: PC, metformin 150 mg/kg
Experimental: Fifty healthy adult male Kunming mice were purchased from Zhuhai Bestest Biotechnology Co., Ltd. The experiments were approved by the Animal Ethics Committee of Guangdong Ocean University with the approval number of GDOU-LAE-2021-002, approved on 6 April 2021. Before the experiment, all animals were watered and fed freely for 7 days. […] The groups were mixed with soluble starch (250 mg/kg) and gavaged synchronously for 3 d.

[1] = pH 7.4
[2] = system: glucose metabolizing enzyme; conditions: extracted from Spirulina; cited from earlier work
Description: Marine proteins have a novel amino acid composition, which is one of the important sources for the production of bioactive peptides ([11], [12]). There have been a number of studies on natural hypoglycemic active peptides from marine sources such as Trachurus trachurus, Euphausia superba, Chlorella vulgaris and Crassostrea gigas ([11], [13–15]).

α-glucosidase, sequence (P53341 whole entry): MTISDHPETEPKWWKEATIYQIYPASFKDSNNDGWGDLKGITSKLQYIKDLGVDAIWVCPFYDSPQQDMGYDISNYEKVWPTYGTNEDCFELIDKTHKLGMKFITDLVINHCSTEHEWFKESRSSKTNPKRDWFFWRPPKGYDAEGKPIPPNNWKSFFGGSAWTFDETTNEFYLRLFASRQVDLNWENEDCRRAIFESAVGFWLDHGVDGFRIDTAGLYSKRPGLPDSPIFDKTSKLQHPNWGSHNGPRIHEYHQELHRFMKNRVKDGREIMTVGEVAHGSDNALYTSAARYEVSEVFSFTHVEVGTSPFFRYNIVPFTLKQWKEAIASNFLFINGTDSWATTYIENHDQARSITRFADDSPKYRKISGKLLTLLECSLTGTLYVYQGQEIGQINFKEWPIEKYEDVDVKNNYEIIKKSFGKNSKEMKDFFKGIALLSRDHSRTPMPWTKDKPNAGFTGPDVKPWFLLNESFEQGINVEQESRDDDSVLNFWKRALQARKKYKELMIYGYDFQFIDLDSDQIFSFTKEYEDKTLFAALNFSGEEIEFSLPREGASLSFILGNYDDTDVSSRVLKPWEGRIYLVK

LRSELAAWSR [peptide from Spirulina platensis]
pIC50 (α-glucosidase; from Spirulina platensis): 3.87
IC50, inhibitory activity against α-glucosidase (α-glucosidase; from Spirulina platensis): 134.2 µg/mL

CN(C)C(=N)N=C(N)N [metformin]
Fasting serum insulin (serum insulin; ELISA): 29.82 ± 5.50^a mIU/L
Insulin secretion index (serum insulin): 8.50 ± 1.12^a
Insulin sensitivity index (serum insulin): 2.13 ± 0.13^a
blood glucose values after gavage vs NC (in words) (blood glucose; 0.5 h and 2 h of gavage, compared with the NC group, p < 0.05): significantly reduce the blood glucose values
AUC of blood glucose (in words) (blood glucose; EHCA 500-2,000 mg/kg or metformin 150 mg/kg, relative to NC group, p < 0.05, n = 10): markedly reduced the AUC values
Blood glucose value, G1 (blood glucose; PC, metformin 150 mg/kg, gavage 3 d, fasting at the end of dosing, mean ± SD, n = 10 mice): 3.21 ± 0.20^a mmol/L
Blood glucose value, 0.5 h (blood glucose; PC, metformin 150 mg/kg, gavage 3 d with soluble starch, 0.5 h, mean ± SD, n = 10 mice, listed as PC): 8.45 mmol/L
Blood glucose value, 2 h (blood glucose; PC, metformin 150 mg/kg, gavage 3 d with soluble starch, 2 h, mean ± SD, n = 10 mice, listed as PC): 6.87 ± 1.14 mmol/L and 6.87 mmol/L
Blood glucose value, G0 (blood glucose; PC, metformin 150 mg/kg, pre-dose fasting, mean ± SD, n = 10 mice): 4.94 ± 1.71^a mmol/L
hypoglycemic rate (in words) (blood glucose; fasted mice, EHCA 500-2,000 mg/kg or metformin 150 mg/kg, 3 d, compared with the NC group, n = 10): significantly increased the hypoglycemic rate
SOD activity in liver (SOD in liver; WST-8 method, mean ± SD, n = 10 mice, NC 242.00 ± 66.43): 363.55 ± 18.09 U/mL
increase of SOD activity in liver (SOD in liver; compared to the NC group): 50.23%

KLNSTTEKLEE
solubility [1]: good solubility

USW: anti-diabetic peptide USW extracted from Spirulina (LRSELAAWSR)
effect on insulin resistance / glucose metabolizing enzyme [2]: improve insulin resistance by significantly increasing activity of glucose metabolizing enzyme

LPLLR [Walnut-derived peptide LPLLR]
inhibition of α-glucosidase (α-glucosidase; 2 mM, walnut-derived): 50.12%

TDADHKF [TDADHKF, Thr-Asp-Ala-Asp-His-Lys-Phe]
solubility [1]: good solubility

Source: PMC11973072, “Computational screening for novel α-glucosidase inhibitory peptides from Chlamys nobilis adductor muscle as a potential antidiabetic agent” (Frontiers in Nutrition, 2025)
